The values below come from patent publication US6784192B2, “Piperidine compound and pharmaceutical composition thereof” (Eisai Co., Ltd., priority 2000, dated 2004).

Experiment [1] relates to atrial muscle of anesthetized thoracotomy dog. Description: Effective refractory period (ERP) in anesthetized thoracotomy dog. The experiment is classed as in vivo. Particulars: for Measurement Value of ERP: mean. From the text: (1) An anesthetized thoracotomy dog was used for the present experiment. After opening brisket at a median line and cutting epicardium, bipolar electrodes for determination of a potential wave form were respectively stitched at the free walls of right and left atriums. Further, a wire electrode was inserted in the free wall of a right atrium to be fixed and used for electrical simulation.
(2) A program electrical stimulation equipment was connected with the electrode for electrical stimulation at the right atrium, the electrical stimulation was carried out at a stimulation periodical length of 500 mess, and a threshold for the electrical stimulation was measured. The electrical stimulation intensity for the experiments below was set to carry out stimulation at 3-fold of this threshold. However, when the threshold was 0.7 V or less, the electrical stimulation was carried out at 2.0 V. Effective refractory period (ERP) provided early premature stimulation (S2) after the basic stimulation (S1) of 10 times, and the longest linking period in which atrium potential was not generated by the premature stimulation was referred to as ERP, while shortening the linking period (S1-S2) by 5 mess. Similar experiments were also carried out for the respective basic stimulation length (BCL) of 400, 300, 250 and 200 mess (control experiment: 1 series). After carrying out 2 times or more of the control experiments and confirming that ERP was stable, the tested substance was subsequently administered, and similar measurement was carried out. After the tested substance was administered once intravenously for 5 minutes, its keeping dose was subsequently administered intravenously. After 10 minutes of the administration start of the keeping dose, ERP was measured in the respective stimulation frequency. After completion of the one series of measurements, the concentration of the tested substance was increased and the similar experiments were repeated. The ERP and conduction time in the atrium in the respective stimulation frequency were compared with various indices under control condition. The result is shown by mean.

Experiment [2] deals with rabbit atrial muscle. Put plainly: Assessment for rabbit atrial muscle, Vmax. Particulars: Oryctolagus cuniculus, 0.25 h; Test Example 4; right atrial muscle, stimulation frequency 4 Hz, 15 minutes. Here is the method:
The specimen of the right atrial muscle which was enucleated from rabbit was used for the present experiment. The electrical stimulation was applied for the right atrial muscle which was enucleated, under conditions: a stimulation duration of 1 mess; a stimulation frequency of 4 Hz; and a stimulation intensity of about 1.2-fold of the threshold. The stimulation was provided from 30 minutes to 60 minutes before start of the experiment, and the condition of the specimen was stabilized. The action potential was recorded according to a glass microelectrode method. 3 M KCl was charged in the glass electrode, inserted in the specimen of the right atrium, and the action potential was recorded. Vmax is the parameter of the maximum upstroke slope of the action potential recorded, and a value which was automatically calculated by an action potential analysis soft (CAPA 1.23 manufactured by Physiotec. Co., Ltd.) was used. After the action potential in a normal Tyrode solution was recorded as control, the action potential after flowing the tested substances at respective concentrations for 15 minutes was recorded. The action of the tested substance for Vmax was calculated as an IC50 value.

In experiment [3] the test system is spontaneous nerve discharge of cut left saphenous nerve. Description: Suppression of spontaneous nerve discharge (ectopic firing). The experiment is classed as in vivo. The conditions noted are these: Test Example 5, rat, intravenous catheter, urethane anesthetized; for ED50: read-out: Ectopic Firing (ID50 mg/kg). How it is done: In order to assess the suppression action for spontaneous nerve discharge, the experiment was carried out by a method below, referring to “Burchiel, K J., Exp. Nuerol., 102, 249-253 (1988)”. Namely, for the rat in which spontaneous discharge was observed, the left saphenous nerve was cut off nearby knee articulatio before 1 week or more, and around 3 mm of the nerve was cut off so that the nerve was not adhered again. The left saphenous nerve was exposed under urethane (1 g/kg body weight) anesthetized, and about 1 cm of adjacent portion from the cut portion was peeled from a periphery tissue. Further, a catheter was preliminarily inserted in the vein of a right neck for administration of a compound. The peeled nerve was mounted on a platinum hook electrode, and liquid paraffin was put on it so that the nerve was not dried. The electrode was connected with a fine electrode amplifier, and the value was recorded on a computer through an AD/converter from an oscilloscope. The nerve discharge recorded was assessed by the number of ignition per 10 seconds using an analysis soft (AcqKnowledge).

Setting [4] is: dose 0.1 mg/kg intravenously, BCL 200 msec.
Where [5] appears, read: dose 0.1 mg/kg intravenously, BCL 300 msec.
Setting [6] is: dose 0.1 mg/kg intravenously, BCL 400 msec.
Where [7] appears, read: dose 0.1 mg/kg intravenously, BCL 500 msec.
The mark [8] stands for this setting: dose 0.3 mg/kg intravenously, BCL 200 msec.
[9] abbreviates: dose 0.3 mg/kg intravenously, BCL 300 msec.
Setting [10] is: dose 0.3 mg/kg intravenously, BCL 400 msec.
Where [11] appears, read: dose 0.3 mg/kg intravenously, BCL 500 msec.
Where [12] appears, read: dose 1 mg/kg intravenously, BCL 200 msec.
Setting [13] is: dose 1 mg/kg intravenously, BCL 300 msec.
[14] abbreviates: dose 1 mg/kg intravenously, BCL 400 msec.
[15] abbreviates: dose 1 mg/kg intravenously, BCL 500 msec.
Setting [16] is: dose 0.1 mg/kg intravenously, BCL 250 msec.
Where [17] appears, read: dose 0.3 mg/kg intravenously, BCL 250 msec.

For `O=c1[nH]cccc1CN1CCC(CCc2nccs2)CC1` [Example 109, 1-[(2-Oxo-1,2-dihydro-3-pyridinyl)methyl]-4-[2-(1,3-thiazol-2-yl)ethyl]piperidine], the “Measurement Value of ERP” value turned out to be 110 ms in experiment [1] (setting [4]); 140 ms in experiment [1] (setting [5]); 165 ms in experiment [1] (setting [6]); 185 ms in experiment [1] (setting [7]); 130 ms in experiment [1] (setting [8]); 155 ms in experiment [1] (setting [9]). Besides, the “Measurement Value of ERP” value in experiment [1] (setting [10]) stood at 185 ms; in experiment [1] (setting [11]), 200 ms; in experiment [1] (setting [12]) it was 150 ms; in experiment [1] (setting [13]) it was 175 ms; in experiment [1] (setting [14]) it was 215 ms; in experiment [1] (setting [15]) it was 235 ms.

As for `COc1ncccc1CCC1CCN(Cc2ccc[nH]c2=O)CC1` [Example 118, 1-[(2-Oxo-1,2-dihydro-3-pyridinyl)methyl]-4-[2-(2-methoxy-3-pyridyl)ethyl]piperidine], the “Measurement Value of ERP” value is 130 ms in experiment [1] (setting [8]); 160 ms in experiment [1] (setting [9]); 180 ms in experiment [1] (setting [10]); 190 ms in experiment [1] (setting [11]); 190 ms in experiment [1] (setting [13]); 215 ms in experiment [1] (setting [14]). Also, in experiment [1] (setting [15]), the “Measurement Value of ERP” value is 220 ms.

Take `O=c1[nH]cccc1CN1CCC(CCc2cccc3c2OCO3)CC1` [Example 128, 1-[(2-Oxo-1,2-dihydro-3-pyridinyl)methyl]-4-(2,3-methylenedioxyphenethyl)piperidine]: the “Measurement Value of ERP” value in experiment [1] (setting [4]) was 125 ms; in experiment [1] (setting [5]) it was 160 ms; in experiment [1] (setting [6]) it was 175 ms; in experiment [1] (setting [7]), 185 ms; in experiment [1] (setting [8]), 155 ms; in experiment [1] (setting [9]), 180 ms. Moreover, the “Measurement Value of ERP” value in experiment [1] (setting [10]) stood at 195 ms; in experiment [1] (setting [11]), 210 ms; in experiment [1] (setting [13]), 215 ms; in experiment [1] (setting [14]), 250 ms; in experiment [1] (setting [15]), 280 ms.

On to `COc1ccccc1C(=O)CC1CCN(Cc2ccc[nH]c2=O)CC1` [Example 144, 1-[(2-Oxo-1,2-dihydro-3-pyridinyl)methyl]-4-[2-(2-methoxyphenyl)-2-oxoethyl]piperidine], for which the “Measurement Value of ERP” value in experiment [1] (setting [4]) is 140 ms; in experiment [1] (setting [16]), 155 ms; in experiment [1] (setting [5]) it was 165 ms; in experiment [1] (setting [6]), 190 ms; in experiment [1] (setting [7]) it was 200 ms; in experiment [1] (setting [8]) it was 155 ms. Moreover, the “Measurement Value of ERP” value turned out to be 165 ms in experiment [1] (setting [17]), 180 ms in experiment [1] (setting [9]), 200 ms in experiment [1] (setting [10]) and 215 ms in experiment [1] (setting [11]).

Take `C#CCN(CC#C)C(=O)C[C@H]1CCCCN1Cc1ccc[nH]c1=O` [Example 191, N1,N1-Di(2-propynyl)-2-[(2R)-1-[(2-oxo-1,2-dihydro-3-pyridinyl)methyl]-2-piperidyl]acetamide]: the “Measurement Value of ERP” value stood at 135 ms in experiment [1] (setting [8]); 155 ms in experiment [1] (setting [9]); 165 ms in experiment [1] (setting [10]); 175 ms in experiment [1] (setting [11]); 150 ms in experiment [1] (setting [12]); 170 ms in experiment [1] (setting [13]). The figures for the “Measurement Value of ERP” value in experiment [1] (setting [14]) and in experiment [1] (setting [15]) were 185 ms and 195 ms, respectively. Besides, the “Percent change in ERP versus pre-dose control” value in experiment [1] (dose 0.3 mg/kg, BCL 300 msec) is 14.8%; in experiment [1] (dose 0.3 mg/kg, BCL 400 msec), 6.5%; in experiment [1] (dose 0.3 mg/kg, BCL 500 msec), 9.4%; in experiment [1] (dose 1 mg/kg, BCL 300 msec), 25.9%; in experiment [1] (dose 1 mg/kg, BCL 400 msec) it was 19.4%; in experiment [1] (dose 1 mg/kg, BCL 500 msec), 21.9%.

With `C#CCN(CC#C)C(=O)C[C@H]1CCCCN1Cc1cccn(CC(F)(F)F)c1=O` [Example 194, N1,N1-Di(2-propynyl)-2-[(2R)-1-[[2-oxo-1-(2,2,2-trifluoroethyl)-1,2-dihydro-3-pyridinyl)methyl]hexahydro-2-pyridinyl]acetamide], the “Measurement Value of ERP” value amounted to 110 ms in experiment [1] (setting [4]); 120 ms in experiment [1] (setting [16]); 135 ms in experiment [1] (setting [5]); 155 ms in experiment [1] (setting [6]); 165 ms in experiment [1] (setting [7]); 125 ms in experiment [1] (setting [8]). Moreover, the “Measurement Value of ERP” value in experiment [1] (setting [17]) came out at 126 ms; in experiment [1] (setting [9]) it was 145 ms; in experiment [1] (setting [10]) it was 165 ms; in experiment [1] (setting [11]), 175 ms; in experiment [1] (setting [12]) it was 145 ms; in experiment [1] (dose 1 mg/kg intravenously, BCL 250 msec) it was 155 ms. Besides, the “Measurement Value of ERP” value came out at 170 ms in experiment [1] (setting [13]), 195 ms in experiment [1] (setting [14]) and 210 ms in experiment [1] (setting [15]).

`O=c1[nH]cc(Cl)cc1CN1CCC(/C=C/c2ccccc2F)CC1` [Example 334, 1-[(5-Chloro-2-oxo-1,2-dihydro-3-pyridinyl)methyl]-4-[(E)-2-(2-fluorophenyl)-1-ethenyl]piperidine]: the IC50 in experiment [2] amounted to 17.5 µM. Further, the ED50 in experiment [3] stood at 0.03 mg/kg.

As for `Cc1ccccc1/C=C/C1CCN(Cc2cc(Cl)c[nH]c2=O)CC1` [Example 337, 1-[(5-Chloro-2-oxo-1,2-dihydro-3-pyridinyl)methyl]-4-[(E)-2-(2-methylphenyl)-1-ethenyl]piperidine], the ED50 in experiment [3] was found to be 0.3 mg/kg.

Take `O=C(O)C(=O)O.O=c1[nH]cc(F)cc1CN1CCC(/C=C/c2ccccc2OCC2CCCCC2)CC1` [Example 345, 1-[(5-Fluoro-2-oxo-1,2-dihydro-3-pyridinyl)methyl]-4-[(E)-2-[(2-cyclohexylmethyloxy)phenyl]-1-ethenyl]piperidine oxalate]: the “Ectopic Firing (ID50 mg/kg)” value in experiment [3] was 0.4 mg/kg.

On to `O=C(O)C(=O)O.O=c1[nH]cccc1CN1CCC(C#Cc2ccccc2OCC2CCCCC2)CC1` [Example 349, 1-[(2-Oxo-1,2-dihydro-3-pyridinyl)methyl]-4-[2-[(2-cyclohexylmethyloxy)phenyl]-1-ethynyl]piperidine oxalate], for which the “Ectopic Firing (ID50 mg/kg)” value in experiment [3] worked out at 0.17 mg/kg.

`N#Cc1c[nH]c(=O)c(CN2CCC(/C=C/c3ccccc3F)CC2)c1` [Example 351, 1-[(5-Cyano-2-oxo-1,2-dihydro-3-pyridinyl)methyl]-4-[(E)-2-(2-fluorophenyl)-1-ethenyl]piperidine]: the ED50 in experiment [3] amounted to 0.17 mg/kg.
